Measured values as given in patent publication EP4559911A1, “NOVEL HETEROCYCLIC COMPOUND AND PHARMACEUTICAL COMPOSITION FOR INHIBITING AUTOTAXIN COMPRISING THE SAME” (Nextgen Bioscience Co., Ltd., priority 2022, dated 2024).

molecular target: human Autotaxin protein (Homo sapiens, UniProt Q13822); test: Evaluation of the inhibitory activity against human Autotaxin protein (18:1 LysoPC substrate, choline assay kit, absorbance at 570 nm); format: biochemical; details: compound at 500nM; 2 hours at 37 °C; % inhibition = (1 - absorbance test group / absorbance control group) X 100
Description: Solutions of each compound synthesized (80 uM, 100% dimethyl sulfoxide) were sequentially diluted 5-fold with dimethyl sulfoxide to prepare 6 concentrations. Each concentration of the compound was diluted 2-fold with 1x test buffer (50 mM Tris-Cl (pH 8.0), 5 mM KCl, 1 mM CaCl2, 1 mM MgCl2, 140 mM NaCl, deionized water, 1 mg/mL BSA), and 1 uL (1.25% dimethyl sulfoxide) of this diluted mixture was dispensed into each well of a 96-well clear round-bottom plate. 9 uL of 1x test buffer was added, and 20 uL of 240 nM human autotaxin protein (buffer: 50 mM Tris-HCl, pH 8.0, with 150 mM sodium chloride and 20% glycerol) was added. 10 uL of sonicated 360 uM 18:1 LysoPC (diluted with 1x assay buffer) was added. The reaction was performed for 2 hours in a shaking incubator at 37 °C, and a secondary reaction mixture (choline assay kit, KA1662) (65 uL of 1x assay buffer: 1 uL of choline oxidase: 1 uL of dye probe) was prepared. 60 uL of the secondary reaction mixture was added to the plate where the reaction was performed, and incubated for 30 minutes in a shaker. The absorbance value was measured at a wavelength of 570 nm using a SpectraMax iD3 microplate reader. The percentage inhibition activity value (% inhibition) was calculated by the formula: (1 - absorbance value test group / absorbance value control group) X 100.

Q: For `O=C(O)C1CN(c2nnc(-c3cnc(NC4Cc5cc(F)c(F)cc5C4)nc3)o2)C1` [Example 50, 1-(5-(2-((5,6-difluoro-2,3-dihydro-1H-inden-2-yl)amino)pyrimidin-5-yl)-1,3,4-oxadiazol-2-yl)azetidine-3-carboxylic acid], which inhibition at 0.5 µM is on record?
A: 14%

Q: `Clc1ccc2c(c1)CC(Nc1ncc(-c3nnc(N4CCC(c5c[nH]nn5)C4)o3)cn1)C2` (centres unmarked) [Example 37, 5-(5-(3-(1H-1,2,3-triazol-4-yl)pyrrolidin-1-yl)-1,3,4-oxadiazol-2-yl)-N-(5-chloro-2,3-dihydro-1H-inden-2-yl)pyrimidin-2-amine] was tested. Which inhibition at 0.5 µM did it give?
A: 97.9%

Q: `Fc1cc(F)cc(CNc2ncc(-c3nnc(N4CCC(c5c[nH]nn5)C4)o3)cn2)c1` (centres unmarked) [Example 21, 5-(5-(3-(1H-1,2,3-triazol-4-yl)pyrrolidin-1-yl)-1,3,4-oxadiazol-2-yl)-N-(3,5-difluorobenzyl)pyrimidin-2-amine] was tested. Which inhibition at 0.5 µM did it give?
A: 72.5%

Q: How did the inhibition at 0.5 µM turn out when `OC1CN(c2nnc(-c3cnc(NC4Cc5cc(F)c(F)cc5C4)nc3)o2)C1` [Example 49, 1-(5-(2-((5,6-difluoro-2,3-dihydro-1H-inden-2-yl)amino)pyrimidin-5-yl)-1,3,4-oxadiazol-2-yl)azetidin-3-ol] was run?
A: 11%

Q: For `Fc1cc2c(cc1F)CC(Nc1ncc(-c3nnc(N4CC(n5cncn5)C4)o3)cn1)C2` [Example 79, 5-(5-(3-(1H-1,2,4-triazol-1-yl)azetidin-1-yl)-1,3,4-oxadiazol-2-yl)-N-(5,6-difluoro-2,3-dihydro-1H-inden-2-yl)pyrimidin-2-amine], which inhibition at 0.5 µM is on record?
A: 24.7%

Q: With `O=c1[nH]nc(C2CCN(c3nnc(-c4cnc(NC5Cc6cc(F)c(F)cc6C5)nc4)o3)C2)o1` (centres unmarked) [Example 23, 5-(1-(5-(2-((5,6-difluoro-2,3-dihydro-1H-inden-2-yl)amino)pyrimidin-5-yl)-1,3,4-oxadiazol-2-yl)pyrrolidin-3-yl)-1,3,4-oxadiazol-2(3H)-one] as the molecule, how does the inhibition at 0.5 µM read?
A: 91.6%

Q: Which inhibition at 0.5 µM does the source give for `NS(=O)(=O)C1CN(c2nnc(-c3cnc(NC4Cc5cc(F)c(F)cc5C4)nc3)o2)C1` [Example 46, 1-(5-(2-((5,6-difluoro-2,3-dihydro-1H-inden-2-yl)amino)pyrimidin-5-yl)-1,3,4-oxadiazol-2-yl)azetidine-3-sulfonamide] here?
A: 27.1%

Q: `COC(=O)C1CCN(c2nnc(-c3cnc(NC4Cc5cc(F)c(F)cc5C4)nc3)o2)C1` (centres unmarked) [Example 15, methyl 1-(5-(2-((5,6-difluoro-2,3-dihydro-1H-inden-2-yl)amino)pyrimidin-5-yl)-1,3,4-oxadiazol-2-yl)pyrrolidine-3-carboxylate] was tested. Which inhibition at 0.5 µM did it give?
A: 9.5%

Q: With `Fc1cc2c(cc1F)CC(Nc1ncc(-c3cc(N4CCC(c5c[nH]nn5)C4)no3)cn1)C2` (centres unmarked) [Example 18, 5-(3-(3-(1H-1,2,3-triazol-4-yl)pyrrolidin-1-yl)isoxazol-5-yl)-N-(5,6-difluoro-2,3-dihydro-1H-inden-2-yl)pyrimidin-2-amine] as the molecule, how does the inhibition at 0.5 µM read?
A: 95.3%

Q: Which inhibition at 0.5 µM does the source give for `Fc1cc2c(cc1F)CC(Nc1ncc(-c3nnc(N4CC(c5c[nH]cn5)C4)o3)cn1)C2` [Example 76, 5-(5-(3-(1H-imidazol-4-yl)azetidin-1-yl)-1,3,4-oxadiazol-2-yl)-N-(5,6-difluoro-2,3-dihydro-1H-inden-2-yl)pyrimidin-2-amine] here?
A: 64%

Q: With `N#CC1CN(c2nnc(-c3cnc(NC4Cc5cc(F)c(F)cc5C4)nc3)o2)C1` [Example 57, 1-(5-(2-((5,6-difluoro-2,3-dihydro-1H-inden-2-yl)amino)pyrimidin-5-yl)-1,3,4-oxadiazol-2-yl)azetidine-3-carbonitrile] as the molecule, how does the inhibition at 0.5 µM read?
A: 8.6%

Q: With `COC(=O)CC1CCN(c2nnc(-c3cnc(NC4Cc5cc(F)c(F)cc5C4)nc3)o2)C1` (centres unmarked) [Example 24, methyl 2-(1-(5-(2-((5,6-difluoro-2,3-dihydro-1H-inden-2-yl)amino)pyrimidin-5-yl)-1,3,4-oxadiazol-2-yl)pyrrolidin-3-yl)acetate] as the molecule, how does the inhibition at 0.5 µM read?
A: 1%

Q: `CC1(c2c[nH]nn2)CN(C(=O)/C=C/c2cnc(NC3Cc4ccccc4C3)nc2)C1` [Example 82, (E)-3-(2-((2,3-dihydro-1H-inden-2-yl)amino)pyrimidin-5-yl)-1-(3-methyl-3-(1H-1,2,3-triazol-4-yl)azetidin-1-yl)prop-2-en-1-one] was tested. Which inhibition at 0.5 µM did it give?
A: 98%

Q: `Fc1cc2c(cc1F)CC(Nc1ncc(-c3nnc(N4CC(c5c[nH]nn5)C4)o3)cn1)C2` [Example 39, 5-(5-(3-(1H-1,2,3-triazol-4-yl)azetidin-1-yl)-1,3,4-oxadiazol-2-yl)-N-(5,6-difluoro-2,3-dihydro-1H-inden-2-yl)pyrimidin-2-amine] was tested. Which inhibition at 0.5 µM did it give?
A: 98%

Q: Which inhibition at 0.5 µM does the source give for `O=C(CCc1cnc(NC2Cc3cc(F)c(F)cc3C2)nc1)N1CCC(c2c[nH]nn2)C1` (centres unmarked) [Example 10, 1-(3-(1H-1,2,3-triazol-4-yl)pyrrolidin-1-yl)-3-(2-((5,6-difluoro-2,3-dihydro-1H-inden-2-yl)amino)pyrimidin-5-yl)propan-1-one] here?
A: 18.6%

Q: Which inhibition at 0.5 µM does the source give for `Fc1cc(F)cc(CNc2ncc(-c3nnc(N4CC(c5c[nH]nn5)C4)o3)cn2)c1` [Example 48, 5-(5-(3-(1H-1,2,3-triazol-4-yl)azetidin-1-yl)-1,3,4-oxadiazol-2-yl)-N-(3,5-difluorobenzyl)pyrimidin-2-amine] here?
A: 39.2%

Q: With `Fc1cc2c(cc1F)CC(Nc1ncc(-c3nnc(N4CCC(n5cncn5)C4)o3)cn1)C2` (centres unmarked) [Example 28, 5-(5-(3-(1H-1,2,4-triazol-1-yl)pyrrolidin-1-yl)-1,3,4-oxadiazol-2-yl)-N-(5,6-difluoro-2,3-dihydro-1H-inden-2-yl)pyrimidin-2-amine] as the molecule, how does the inhibition at 0.5 µM read?
A: 10.9%

Q: For `Fc1cc2c(cc1F)CC(Nc1cnc(-c3nnc(N4CC(c5c[nH]nn5)C4)o3)cn1)C2` [Example 60, 5-(5-(3-(1H-1,2,3-triazol-4-yl)azetidin-1-yl)-1,3,4-oxadiazol-2-yl)-N-(5,6-difluoro-2,3-dihydro-1H-inden-2-yl)pyrazin-2-amine], which inhibition at 0.5 µM is on record?
A: 1%

Q: How did the inhibition at 0.5 µM turn out when `Clc1cc(Cl)cc(CCNc2ncc(-c3nnc(N4CCC(c5c[nH]nn5)C4)o3)cn2)c1` (centres unmarked) [Example 11, 5-(5-(3-(1H-1,2,3-triazol-4-yl)pyrrolidin-1-yl)-1,3,4-oxadiazol-2-yl)-N-(3,5-dichlorophenethyl)pyrimidin-2-amine] was run?
A: 41.6%

Q: Which inhibition at 0.5 µM does the source give for `Cc1ncn(C2CCN(c3nnc(-c4cnc(NC5Cc6cc(F)c(F)cc6C5)nc4)o3)C2)n1` (centres unmarked) [Example 29, N-(5,6-difluoro-2,3-dihydro-1H-inden-2-yl)-5-(5-(3-(3-methyl-1H-1,2,4-triazol-1-yl)pyrrolidin-1-yl)-1,3,4-oxadiazol-2-yl)pyrimidin-2-amine] here?
A: 9.2%

Q: `CC(C)(C)C(=O)OCn1cc(C2CN(c3nnc(-c4cnc(NCc5ccc6c(c5)OCO6)nc4)o3)C2)nn1` [Example 86, (4-(1-(5-(2-((benzo[d][1,3]dioxol-5-ylmethyl)amino)pyrimidin-5-yl)-1,3,4-oxadiazol-2-yl)azetidin-3-yl)-1H-1,2,3-triazol-1-yl)methyl pivalate] was tested. Which inhibition at 0.5 µM did it give?
A: 2.8%

Q: With `c1cc2c(cc1CNc1ncc(-c3nnc(N4CCC(c5c[nH]nn5)C4)o3)cn1)OCO2` (centres unmarked) [Example 6, 5-(5-(3-(1H-1,2,3-triazol-4-yl)pyrrolidin-1-yl)-1,3,4-oxadiazol-2-yl)-N-(benzo[d][1,3]dioxol-5-ylmethyl)pyrimidin-2-amine] as the molecule, how does the inhibition at 0.5 µM read?
A: 30.4%

Q: How did the inhibition at 0.5 µM turn out when `c1cc2c(cc1CNc1ncc(-c3nnc(N4CC(c5c[nH]nn5)C4)o3)cn1)OCO2` [Example 87, 5-(5-(3-(1H-1,2,3-triazol-4-yl)azetidin-1-yl)-1,3,4-oxadiazol-2-yl)-N-(benzo[d][1,3]dioxol-5-ylmethyl)pyrimidin-2-amine] was run?
A: 18%
